From patent publication US11007183B2, “Cancer treatments using combinations of PI3K/Akt pathway and ERK inhibitors” (BIOMED VALLEY DISCOVERIES, INC., priority 2013, dated 2021) come the findings set out here.

The structures appear in SMILES notation. Values joined by “and” are separate entries in the source; they are usually repeats but may differ in a detail not shown here. Equal values may be shown once.

Data set [1] has as its system HCT116 Parental. As to the kind of experiment: Single agent proliferation assay (CellTiter-Glo, 72 h). In kind it is cell-based, human. The protocol: (§1) Cells were seeded in 96-well plates at the densities and media conditions indicated in Table 11 in McCoy's 5A containing either 10% FBS or 1% charcoal-stripped FBS (CS-FBS), and allowed to adhere overnight prior to addition of compound or vehicle control. Compounds were prepared from DMSO stocks to give the desired final concentrations. The final DMSO concentration was constant at 0.1%. Test compounds were incubated with the cells for 72 h at 37° C., 5% CO2 in a humidified atmosphere. CellTiter-Glo® reagent (Promega, Madison, Wis.) was added according to manufacturer's instructions and luminescence detected using the BMG FLUOstar plate reader (BMG Labtech, Ortenberg, Germany). The average media only background value was deducted and the data analysed using a 4-parameter logistic equation in GraphPad Prism (GraphPad Software, La Jolla, Calif.).

The subject of data set [2] is HCT116 PIK3CA (+/−). The data set is described as above. It counts as cell-based, human. The protocol:
as §1, with “Compounds were prepared from DMSO stocks to give the desired final concentrations.” left out

Data set [3] has as its system HCT116 human colorectal carcinoma xenograft. In words: HCT116 xenograft tumor growth delay (TGD) study. It counts as in vivo, mice. The procedure: Female athymic nude mice (Crl:NU(Ncr)-Foxn1^nu, Charles River) were eight weeks old with a body weight (BW) range of 14.6 to 25.7 grams on Day 1 of the study. The animals were fed ad libitum water (reverse osmosis, 1 ppm Cl), and NIH 31 Modified and Irradiated Lab Diet® consisting of 18.0% crude protein, 5.0% crude fat, and 5.0% crude fiber. The mice were housed on irradiated Enrich-O'Cobs™ Laboratory Animal Bedding in static microisolators on a 12-hour light cycle at 20-22° C. (68-72° F.) and 40-60% humidity.
HCT116 human colon carcinoma cells were cultured in RPMI-1640 medium supplemented with 10% fetal bovine serum, 2 mM glutamine, 100 units/mL penicillin G sodium, 100 μg/mL streptomycin sulfate, and 25 μg/mL gentamicin. The tumor cells were grown in tissue culture flasks in a humidified incubator at 37° C., in an atmosphere of 5% CO2 and 95% air.
The HCT116 cells used for implantation were harvested during exponential growth and resuspended in 50% Matrigel (BD Biosciences): 50% phosphate buffered saline at a concentration of 2.5×10^7 cells/mL. On the day of tumor implant, each test mouse was injected subcutaneously in the right flank with 5×10^6 cells (0.2 mL cell suspension), and tumor growth was monitored as the average size approached the target range of 100 to 150 mm^3. Tumors were measured in two dimensions using calipers, and volume was calculated using the formula: Tumor Volume (mm^3)=(w^2×l)/2 where w=width and l=length, in mm, of the tumor. Tumor weight may be estimated with the assumption that 1 mg is equivalent to 1 mm^3 of tumor volume.
Ten days after tumor implantation, designated as Day 1 of the study, the animals were sorted into nine groups (Groups 1-9) each consisting of fifteen mice and one group (Group 10) consisting of ten mice.
BVD-523 doses were prepared by suspending the required amount of BVD-523 powder in 1% carboxymethyl cellulose (CMC) in deionized water (“Vehicle”). A 10 mg/mL BVD-523 stock was prepared, and was used to dose the 100 mg/kg BVD-523 group. Aliquots of the stock were diluted with the vehicle to a concentration of 5.0 mg/mL, which provided a 50 mg/kg BVD-523 dosage in a dosing volume of 10 mL/kg. The BVD-523 doses were stored at 4° C. for up to one week. The 1% CMC vehicle was used to dose the control group.
Paclitaxel (Lot CP2N10007) was purchased as a dry powder from Phyton Biotech, LLC (Fort Worth, Tex.). A paclitaxel stock solution (30 mg/mL) in 50% ethanol: 50% Cremophor EL was prepared and stored at room temperature protected from light during the dosing period. On each day of dosing, an aliquot of the paclitaxel stock was diluted with 5% dextrose in water (D5W) to yield a 3.0 mg/mL paclitaxel dosing solution in a vehicle consisting of 5% ethanol: 5% Cremophor EL: 90% D5W.
On Day 1 of the study, mice were sorted into nine groups (Group 1-9) each consisting of fifteen mice and one group (Group 10) consisting of ten mice, and dosing was initiated according to the treatment plan summarized in Table 4 below. All doses were given by oral gavage (p.o.) except paclitaxel, which was given i.v. For each agent, the dosing volume of 10 mL/kg (0.2 mL per 20 grams of BW) was scaled to the BW of the individual animal. […] For bid dosing, dosing was initiated in the afternoon of Day 1, so that one dose was given on the first day (“first day 1 dose”).
Group 1 received 1% CMC vehicle p.o. bid to end, and served as the control group for calculation of % TGD. Group 10 received paclitaxel i.v. at 30 mg/kg once every other day (qod) for five doses (qod×5), and served as the positive control for the model.
Groups 4 and 5 received 50 and 100 mg/kg BVD-523, respectively, p.o. bid to end.

A short description of data set [4]: Toxicity (body weight, deaths, clinical signs) in the HCT116 xenograft study. It counts as in vivo, mice. The note with it: Group 10: Paclitaxel 30 mg/kg iv qod x 5. The procedure:
Animals were weighed daily on Days 1-5, then twice per week until completion of the study. The mice were observed frequently for overt signs of any adverse, TR side effects, and clinical signs were recorded when observed. Individual BW loss was monitored as per protocol, and any animal whose weight exceeded the limits for acceptable BW loss was euthanized. Group mean BW loss also was monitored as per protocol. Dosing was to be suspended in any group that exceeded the limits for acceptable mean BW loss. If mean BW recovered, then dosing was to be resumed in that group, but at a lower dosage or less frequent dosing schedule. Acceptable toxicity for the maximum tolerated dose (MTD) was defined as a group mean BW loss of less than 20% during the study and not more than 10% TR deaths. A death was classified as TR if attributable to treatment side effects as evidenced by clinical signs and/or necropsy, or may also be classified as TR if due to unknown causes during the dosing period or within 14 days of the last dose. A death was classified as NTR if there was no evidence that death was related to treatment side effects. NTR deaths may be further characterized based on cause of death. A death was classified as NTRa if it resulted from an accident or human error. […] A death was classified as NTRu if the cause of death was unknown and there was no available evidence of death related to treatment side effects, metastasis, accident or human error, although death due to treatment side effects cannot be excluded.

The subject of data set [5] is parental HCT116 cells. As to the kind of experiment: Combination proliferation assay (Loewe/Bliss). To be noted: Homo sapiens, HCT-116, 2.5% serum, mean of n=4 separate combinations, read-out: IC50 (single agent, derived from combination assay plates). It counts as cell-based. The protocol:
Cells were seeded into triplicate 96-well plates at the densities indicated in Table 11 in McCoy's 5A media containing 2.5% FBS and allowed to adhere overnight prior to addition of test compound or vehicle control. Combinations were tested using either a 10×8 or for the follow-up HCT116 study a 3×1 dose matrix.
Test compounds were incubated with the cells for 72 h at 37° C., 5% CO2 in a humidified atmosphere. CellTiter-Glo® reagent (Promega, Madison, Wis.) was added according to manufacturer's instructions and luminescence detected using the BMG FLUOstar plate reader (BMG Labtech, Ortenberg, Germany). The average media only background value was deducted and the data analysed.
For the 10×8 combination assays the combination interactions across the dose matrix were determined by the Loewe Additivity and Bliss independence models using Chalice™ Combination Analysis Software (Horizon Discovery Group, Cambridge, Mass.) as outlined in the user manual (available at chalice.horizondiscovery.com/chalice-portal/documentation/analyzer/home.jsp). Synergy is determined by comparing the experimentally observed level of inhibition at each combination point with the value expected for additivity, which is derived from the single-agent responses along the edges of the matrix. […]

Data set [6] has as its system HCT116 PIK3CA (+/−) cells. In words: Combination proliferation assay (Loewe/Bliss). To be noted: Homo sapiens, HCT-116, read-out: IC50 (single agent, derived from combination assay plates). In kind it is cell-based, human. The procedure:
Test compounds were incubated with the cells for 72 h at 37° C., 5% CO2 in a humidified atmosphere. CellTiter-Glo® reagent (Promega, Madison, Wis.) was added according to manufacturer's instructions and luminescence detected using the BMG FLUOstar plate reader (BMG Labtech, Ortenberg, Germany). The average media only background value was deducted and the data analysed. For the 10×8 combination assays the combination interactions across the dose matrix were determined by the Loewe Additivity and Bliss independence models using ChaliceTM Combination Analysis Software (Horizon Discovery Group, Cambridge, Mass.) as outlined in the user manual (available at chalice.horizondiscovery.com/chalice-portal/documentation/analyzer/home.jsp). Synergy is determined by comparing the experimentally observed level of inhibition at each combination point with the value expected for additivity, which is derived from the single-agent responses along the edges of the matrix. Potential synergistic interactions were identified by displaying the calculated excess inhibition over that predicted as being additive across the dose matrix as a heat map, and by reporting a quantitative 'Synergy Score' based on the Loewe model. The single agent data derived from the combination assay plates were presented as dose-response curves generated in GraphPad Prism (GraphPad Software, La Jolla, Calif.) (plotted using percentage viability relative to DMSO only treated controls). […] (Cbliss is the fractional inhibition that would be expected if the combination of the two drugs were exactly additive). Cbliss values were then subtracted from the experimentally observed fractional inhibition values to give an 'excess over Bliss' value which were plotted as heat maps±SD.

Where [7] appears, read: Homo sapiens, HCT-116, 72 h, 1% CS-FBS.
Where [8] appears, read: Homo sapiens, HCT-116, 72 h, 10% FBS.
Where [9] appears, read: Group 1 (vehicle) vs Group 10 (Paclitaxel 30 mg/kg iv qod x 5).
Setting [10] is: Group 10: Paclitaxel 30 mg/kg iv qod x 5.

For the molecule `Nc1cc(C(F)(F)F)c(-c2cc(N3CCOCC3)nc(N3CCOCC3)n2)cn1` [BKM120], the IC50 was determined as 0.53 µM in data set [1] (setting [7]), 0.62 µM in data set [1] (setting [8]), 1.03 µM in data set [2] (setting [7]) and 0.52 µM in data set [2] (setting [8]).
Take `CS(=O)(=O)N1CCN(Cc2cc3nc(-c4cccc5[nH]ncc45)nc(N4CCOCC4)c3s2)CC1` [GDC-0941, pictilisib]: the IC50 was determined as 0.06 µM in data set [1] (setting [7]) and 1.53 µM in data set [1] (setting [8]).
Consider `CC(C)n1nc(-c2ccc3oc(N)nc3c2)c2c(N)ncnc21` [INK128], for which the IC50 in data set [1] (setting [7]) came to 0.03 µM; in data set [1] (setting [8]), 0.05 µM; in data set [2] (setting [7]), 0.02 µM; in data set [2] (setting [8]), 0.07 µM.
As for `COc1ccc(-c2cc3c(C)nc(N)nc3n([C@H]3CC[C@H](OCCO)CC3)c2=O)cn1` [PF-04691502], the IC50 in data set [1] (1% CS-FBS) was 0.07 µM; in data set [1] (10% FBS) it was 0.29 µM; in data set [2] (1% CS-FBS), 1.54 µM; in data set [2] (10% FBS) it was 0.42 µM.
Regarding `CC(=O)O[C@H]1C(=O)[C@@]2(C)[C@H]([C@H](OC(=O)c3ccccc3)[C@]3(O)C[C@H](OC(=O)[C@H](O)[C@@H](NC(=O)c4ccccc4)c4ccccc4)C(C)=C1C3(C)C)[C@]1(OC(C)=O)CO[C@@H]1C[C@@H]2O` [Paclitaxel, reference compound], in data set [3] (setting [9]), the “Are survival curves diff.?” value is listed as “Yes” and the “Logrank test Chi square” value worked out at 24.03. Moreover, in data set [3] (setting [10]), the “% TGD” value was found to be 38%, the “MTV (n): number of animals on D 45 (45-day survivors)” value is recorded as “(10)”, the “MTV D 45 (median tumor volume)” value was 688 mm^3 and the “Median TTE” value turned out to be 45.0 days. Further, in data set [3] (setting [10]), the “Regressions CR” value is listed as 0; the “Regressions PR” value is 8/10 and 8; the “Regressions TFS” value was 0; the “T − C” value was 12.3 days. Also, in data set [4], the “Deaths NTR” value worked out at 0 and the “Deaths TR” value is 0. Further, the IC50 in data set [1] (setting [7]) was found to be 0.003 µM. The IC50 in data set [1] (setting [8]) stood at 0.002 µM. The molecule further registered an IC50 in data set [2] (setting [7]) of 0.003 µM. This molecule also registered an IC50 in data set [2] (setting [8]) of 0.002 µM.
Turning to `O=C(Nc1ccc2[nH]nc(-c3ccncc3)c2c1)[C@@H]1CCN(CC(=O)N2CCN(c3ccc(-c4ncccn4)cc3)CC2)C1` [SCH772984], the IC50 in data set [1] (setting [7]) is 0.03 µM; in data set [1] (setting [8]), 0.14 µM; in data set [2] (setting [7]), 0.01 µM; in data set [2] (setting [8]), 0.08 µM; in data set [5] it was 0.21 µM; in data set [6] it was 0.03 µM.
